SMILES strings stand for the structures.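 These data come from cells grown in 96-well plates and exposed to compound for 48 hours at five concentrations. TGI: total growth inhibition.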 Some results are limits rather than exact numbers.

The record followed here is PubChem BioAssay (NCI).

Test systems include MDA-N; HCC-2998 colon; CCRF-CEM leukemia; 786-0 renal; SNB-75 CNS; SF-295 CNS; LOX IMVI melanoma; EKVX NSCLC; SNB-19 CNS; HOP-62 NSCLC; SF-539 CNS; DU-145 prostate; SF-268 CNS; A549 NSCLC; NCI-H23 lung; SK-OV-3 ovarian; NCI-H522 lung; TK-10 renal; U251 CNS; RXF 393 renal.
Experiment in all cases: growth of human tumour cells (NCI), 48 h

With `O=C1CSC(c2ccc(Cl)cc2)N1c1ccc(-c2ccc(-n3c(-c4ccccc4)nc4ccccc4c3=O)cc2)cc1` (stereo not drawn), the TGI in the test with MDA-N was more than 100 µM; in the test on HCC-2998 colon, more than 100 µM; in the test with CCRF-CEM leukemia, more than 100 µM; with 786-0 renal, more than 100 µM; with SNB-75 CNS, 26.6 µM; in the test on SF-295 CNS, more than 100 µM. In addition, the TGI in the test with LOX IMVI melanoma is 45.2 µM; in the test on EKVX NSCLC, more than 100 µM; in the test with SNB-19 CNS, more than 100 µM; in the test on HOP-62 NSCLC, more than 100 µM; with SF-539 CNS it was more than 100 µM; with DU-145 prostate it was more than 100 µM. Also, the TGI with SF-268 CNS, in the test with A549 NSCLC, in the test on NCI-H23 lung, in the test on SK-OV-3 ovarian, with NCI-H522 lung and in the test on TK-10 renal was more than 100 µM each time. Further, in the test with U251 CNS, the TGI amounted to 85.8 µM.
On to `CC(C)=C[C@@H]1C[C@H](C)c2c(O)cc(C)c3c2C1=C(C)C(=O)C3=O`, for which the TGI turned out to be 33.7 µM in the test with MDA-N; 54.3 µM in the test with HCC-2998 colon; 47.2 µM in the test with CCRF-CEM leukemia; 36.1 µM with 786-0 renal; 31.4 µM in the test with SNB-75 CNS; 30.4 µM with SF-295 CNS. Moreover, the TGI is 33.3 µM in the test with LOX IMVI melanoma; 33 µM with EKVX NSCLC; 29.1 µM in the test on SNB-19 CNS; 35.8 µM with HOP-62 NSCLC; 32.3 µM with SF-539 CNS; 28.6 µM in the test on DU-145 prostate. Further, the TGI in the test with SF-268 CNS is 31.4 µM; with A549 NSCLC, 21.7 µM; with NCI-H23 lung, 32.5 µM; in the test with SK-OV-3 ovarian, 30.9 µM; in the test on NCI-H522 lung it was 28.8 µM; in the test on TK-10 renal it was 45.9 µM. In addition, the TGI with U251 CNS stood at 26.7 µM.
`O=C(/C=C\c1ccccc1)Oc1ccc(/C=C2\CCCCC2=O)cc1`: the TGI was more than 100 µM in the test with MDA-N; more than 100 µM with HCC-2998 colon; 27.2 µM with CCRF-CEM leukemia; more than 100 µM with 786-0 renal; more than 100 µM with SNB-75 CNS; more than 100 µM with SF-295 CNS. Further, the TGI in the test with LOX IMVI melanoma, with EKVX NSCLC, in the test on SNB-19 CNS, in the test on HOP-62 NSCLC, with SF-539 CNS and with DU-145 prostate was more than 100 µM each time. Also, the TGI in the test on SF-268 CNS is more than 100 µM; in the test with A549 NSCLC it was more than 100 µM; with NCI-H23 lung, more than 100 µM; with NCI-H522 lung it was more than 100 µM; in the test on TK-10 renal it was 43.2 µM; in the test on U251 CNS, more than 100 µM.
Take `COc1ccccc1N1C(=O)CS(=O)(=O)C1c1cccc(Oc2ccccc2)c1` (stereo not drawn): the TGI in the test with MDA-N was 16.5 µM; in the test on CCRF-CEM leukemia it was more than 100 µM; in the test on 786-0 renal, 34.9 µM; in the test on SNB-75 CNS it was 48.2 µM; with SF-295 CNS, 38.2 µM; with LOX IMVI melanoma, 36.1 µM. Moreover, the TGI in the test on EKVX NSCLC is 42.6 µM; in the test on SNB-19 CNS, 38.7 µM; with HOP-62 NSCLC, 49.2 µM; in the test with SF-539 CNS it was 32.6 µM; with DU-145 prostate, 71.2 µM; in the test on SF-268 CNS, 33.1 µM. The TGI amounted to 40.5 µM in the test with A549 NSCLC; 37.3 µM in the test on NCI-H23 lung; 73.5 µM in the test with SK-OV-3 ovarian; 29.3 µM in the test with NCI-H522 lung; 33.8 µM in the test with TK-10 renal; 38.8 µM with RXF 393 renal. The TGI in the test with U251 CNS is 29.7 µM.
On to `COc1ccc(C2CC(c3ccc4ccccc4c3O)=NN2C(C)=O)cc1OC` (stereo not drawn), for which the TGI with MDA-N, with HCC-2998 colon, in the test with CCRF-CEM leukemia, with 786-0 renal, in the test on SNB-75 CNS and with SF-295 CNS was more than 100 µM throughout. The TGI with HOP-62 NSCLC, with SF-539 CNS, with DU-145 prostate, in the test on SF-268 CNS, in the test with A549 NSCLC and with NCI-H23 lung was more than 100 µM in each case. Further, the TGI in the test on SK-OV-3 ovarian, in the test with NCI-H522 lung, in the test on TK-10 renal, in the test on RXF 393 renal and in the test with U251 CNS was more than 100 µM throughout.
On to `COc1ccc2oc(=O)c(CC=C(C)C)c(O)c2c1C`, for which the TGI with MDA-N, in the test on HCC-2998 colon, in the test on CCRF-CEM leukemia, with 786-0 renal, in the test on SNB-75 CNS and with SF-295 CNS was more than 100 µM throughout. Also, the TGI in the test on LOX IMVI melanoma, in the test on EKVX NSCLC, with SNB-19 CNS, in the test with HOP-62 NSCLC, in the test on SF-539 CNS and in the test on DU-145 prostate was more than 100 µM in each case. The TGI in the test on SF-268 CNS, in the test with A549 NSCLC, in the test with NCI-H23 lung, in the test with SK-OV-3 ovarian, with NCI-H522 lung and with TK-10 renal was more than 100 µM throughout. The molecule further registered a TGI in the test with U251 CNS of more than 100 µM.
Regarding `CN(C)CCCNc1ccnc2cc([N+](=O)[O-])ccc12`, the TGI in the test with MDA-N was 25.7 µM; with CCRF-CEM leukemia it was more than 100 µM; in the test on 786-0 renal, 28.8 µM; in the test with SNB-75 CNS, 48.9 µM; in the test on SF-295 CNS, 54.9 µM; in the test with LOX IMVI melanoma, 24.6 µM. Moreover, the TGI turned out to be 42.3 µM in the test on HOP-62 NSCLC; 31.9 µM in the test with SF-539 CNS; 72.2 µM in the test on DU-145 prostate; 53.9 µM with SF-268 CNS; 60.6 µM in the test on A549 NSCLC; 25.4 µM in the test with NCI-H23 lung. The TGI in the test with SK-OV-3 ovarian stood at 62.3 µM; with NCI-H522 lung it was 16.3 µM; in the test on TK-10 renal it was 65.4 µM; in the test with RXF 393 renal, 26.3 µM; with U251 CNS it was 57.7 µM.
